*1 amine or outer side, *2 acyl side, *3 side chain or, on linkers, in order; H or OH if unused. Where a SMILES comes first, the peptide text is derived from it. Side-chain parts run from the residue outwards. The star is where a group is joined. γGlu = O=C(O)[C@H](CCC(=O)[*:2])N[*:1]; Palmitoyl = CCCCCCCCCCCCCCCC(=O)*; Hexanoyl = CCCCCC(=O)*

The target of data set [1] is T1, human VPAC2 (Homo sapiens, UniProt P41587).
T1 construct: expressed in transfected cells
T1 sequence (P41587 24-438): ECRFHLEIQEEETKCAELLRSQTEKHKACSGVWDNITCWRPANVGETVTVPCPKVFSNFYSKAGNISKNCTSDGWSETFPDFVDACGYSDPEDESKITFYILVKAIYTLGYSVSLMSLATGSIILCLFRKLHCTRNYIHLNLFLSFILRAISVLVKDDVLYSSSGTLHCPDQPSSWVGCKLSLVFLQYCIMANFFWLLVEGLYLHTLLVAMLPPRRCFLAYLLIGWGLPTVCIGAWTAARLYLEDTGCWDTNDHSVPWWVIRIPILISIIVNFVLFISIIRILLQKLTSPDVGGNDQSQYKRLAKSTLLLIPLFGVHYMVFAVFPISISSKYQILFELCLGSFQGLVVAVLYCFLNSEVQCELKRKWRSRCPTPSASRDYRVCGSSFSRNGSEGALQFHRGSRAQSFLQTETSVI
The data set is described as follows: Filter binding assay, human VPAC2 membranes, 125I-labeled VIP tracer.

For data set [2], the target named is T1, human VPAC2. The data set is described as follows: Alpha screen cAMP in vitro potency, human VPAC2. Type of data set: cell-based.
The target in the next data set is rat VPAC2 receptor (Rattus norvegicus, UniProt P35000). The data set is described as follows: cell-based.
Another data set deals with T2, human VPAC1 (Homo sapiens, UniProt P32241).
T2 sequence (P32241 31-457): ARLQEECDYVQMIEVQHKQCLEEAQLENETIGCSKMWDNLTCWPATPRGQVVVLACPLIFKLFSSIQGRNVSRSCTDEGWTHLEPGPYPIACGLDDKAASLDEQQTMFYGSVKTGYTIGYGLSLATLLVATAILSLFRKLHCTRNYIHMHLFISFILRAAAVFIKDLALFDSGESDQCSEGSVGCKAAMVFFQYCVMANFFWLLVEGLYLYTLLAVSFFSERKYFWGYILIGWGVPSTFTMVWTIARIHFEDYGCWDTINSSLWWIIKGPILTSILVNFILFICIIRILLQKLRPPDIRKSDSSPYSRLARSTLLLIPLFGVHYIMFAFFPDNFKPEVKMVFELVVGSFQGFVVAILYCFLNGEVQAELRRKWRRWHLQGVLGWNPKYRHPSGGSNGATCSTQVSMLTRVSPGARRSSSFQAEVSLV
The data set is described as follows: Filter binding assay, human VPAC1 membranes, 125I-labeled VIP tracer. Also noted: expressed in transfected cells.

For data set [3] the following is noted: 10 μM peptide in rat serum, 37° C. vs 4° C. with aprotinin, 18 hours; EC50,4C/EC50,37C.
Description: The rat serum is stored at 4° C. until use and is used within two weeks.
On Day 0, prepare two 100 μL aliquots of 10 μM peptide in rat serum by adding 10 μL peptide stock to 90 μL rat serum for each aliquot. Add 250 kIU aprotinin/mL to one of these aliquots. Store the aliquot with aprotinin at 4° C. Store the aliquot without aprotinin at 37° C. Allow the aliquots to incubate for 18 hours.
On Day 1, after incubation of the aliquots prepared on day 0 for 18 hours, prepare an incubation buffer containing PBS+1.3 mM CaCl2, 1.2 mM MgCl2, 2 mM glucose, and 0.25 mM IBMX. Prepare a plate with 11 serial 5× dilutions of peptide for the 4° C. and 37° C. aliquot for each peptide studied. […] Wash the plate(s) with cells twice in incubation buffer. Allow the plates to hold 50 μL incubation media per well for 15 minutes. Transfer 50 μL solution per well to the cells from the plate prepared with 11 serial 3× dilutions of peptide for the 4° C. and 37° C. aliquot for each peptide studied, using the maximal concentrations that are indicated by the primary screen, in duplicate. This step dilutes the peptide concentration by a factor of two. Incubate in room temperature for 30 minutes. Remove the supernatant. Add 40 μL/well of the DiscoveRx antibody/extraction buffer. Incubate on the shaker (300 rpm) for 1 hour. Proceed as normal with the DiscoveRx kit. Include cAMP standards in column 12. […]
The target of data set [4] is T1, human VPAC2. Briefly: DiscoveRx cAMP in vitro potency, human VPAC2. In kind it is cell-based. How it is done:
Also, the cells are washed twice. The cells are incubated in assay buffer plus IBMX for 15 minutes at room temperature. […] The stimuli are present for 30 minutes. Then, the assay buffer is gently removed. […] At day 3, the assay described above for the VPAC2 receptor cell line is performed.

rat VPAC2 receptor, sequence (P35000 23-437): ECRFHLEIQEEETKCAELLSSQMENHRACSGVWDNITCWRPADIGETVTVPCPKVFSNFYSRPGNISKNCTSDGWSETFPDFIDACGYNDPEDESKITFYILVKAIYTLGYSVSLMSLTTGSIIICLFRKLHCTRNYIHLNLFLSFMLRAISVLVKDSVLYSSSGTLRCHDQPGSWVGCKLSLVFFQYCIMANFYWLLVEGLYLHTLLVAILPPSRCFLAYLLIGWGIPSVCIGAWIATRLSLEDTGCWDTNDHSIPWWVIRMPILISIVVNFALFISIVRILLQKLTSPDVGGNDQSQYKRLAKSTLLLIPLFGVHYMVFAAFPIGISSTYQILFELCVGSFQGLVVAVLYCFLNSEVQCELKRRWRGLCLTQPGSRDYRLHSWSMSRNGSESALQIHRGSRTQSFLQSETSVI
Description for rat VPAC2 receptor: DiscoveRx: A CHO—S cell line stably expressing human VPAC2 receptor in a 96-well microtiter plate is seeded with 50,000 cells/well the day before the assay. The cells are allowed to attach for 24 hours in 200 μL culture medium. On the day of the experiment, the medium is removed. Also, the cells are washed twice. The cells are incubated in assay buffer plus IBMX for 15 minutes at room temperature. Afterwards, the stimuli are added and are dissolved in assay buffer. The stimuli are present for 30 minutes. Then, the assay buffer is gently removed. The cell lysis reagent of the DiscoveRx cAMP kit is added. Thereafter, the standard protocol for developing the cAMP signal as described by the manufacturer is used (DiscoveRx Inc., USA). EC50 values for cAMP generation are calculated from the raw signal or are based on absolute cAMP levels as determined by a standard curve performed on each plate.
CHO—PO cells are transiently transfected with rat VPAC1 or VPAC2 receptor DNA.

For `CCCCCCCCCCCCCCCC(=O)N[C@@H](CCC(=O)NCCCC[C@H](NC(=O)[C@@H]1CCCN1C(=O)[C@@H]1CCCN1C(=O)[C@@H]1CCCN1C(=O)[C@H](CO)NC(=O)[C@@H](NC(=O)[C@H](CCCNC(=N)N)NC(=O)[C@H](CO)NC(=O)[C@H](CC(N)=O)NC(=O)[C@H](CCCCN)NC(=O)[C@@H](NC(=O)[C@H](CO)NC(=O)[C@H](CCC(N)=O)NC(=O)[C@H](CC(C)C)NC(=O)[C@H](Cc1ccc(O)cc1)NC(=O)[C@H](CCCCN)NC(=O)[C@H](CCCCN)NC(=O)[C@H](C)NC(=O)[C@H](C)NC(=O)[C@@H](NC(=O)[C@H](CCC(N)=O)NC(=O)[C@H](CCCCN)NC(=O)[C@H](CCCNC(=N)N)NC(=O)[C@H](CC(C)C)NC(=O)[C@H](CCCNC(=N)N)NC(=O)[C@@H](NC(=O)[C@H](Cc1ccc(O)cc1)NC(=O)[C@H](CC(N)=O)NC(=O)[C@H](CC(=O)O)NC(=O)[C@@H](NC(=O)[C@H](Cc1ccccc1)NC(=O)[C@@H](NC(=O)[C@H](C)NC(=O)[C@H](CC(=O)O)NC(=O)[C@H](CO)NC(=O)[C@H](Cc1c[nH]cn1)NC(=O)CCCCC)C(C)C)[C@@H](C)O)[C@@H](C)O)C(C)C)[C@@H](C)CC)[C@@H](C)O)C(N)=O)C(=O)O` [Agonist P81] (Hexanoyl-HSDAVFTDNYTRLRKQVAAKKYLQSIKNSRTSPPPK([γGlu-Palmitoyl])-NH2), the half-inhibitory concentration (IC50) (as a rule, the concentration that gives 50% inhibition) is 800 pM on human VPAC2 [1] and 228000 pM at human VPAC1. The EC50 (commonly the concentration that produces a half-maximal response) at human VPAC2 [2] worked out at 10 pM; on rat VPAC2 receptor, 50 pM; at human VPAC2 [4], 180 pM. The “Rat Serum Stability (Estimated purity in % after 18 hours)” value in data set [3] is 68.05%.

Source of the values: US20080096811A1, “[…] VPAC2 RECEPTOR PEPTIDE AGONISTS” (Eli Lilly and Company, published 2008).
